Test results reported in patent US9023398B2, “Method for improving the aqueous solubility of poorly-soluble substances” (Kabushiki Kaisha Sangi, priority 2009, dated 2015).
“And” between values parts separate entries of the source, which are not always exact repeats. Equal values may be shown once. One block for each compound: values may come before it.

Tests used:
[1] = Dissolution test of poorly-soluble substances using 2nd fluid for disintegration test (pH 6.8) of the Japanese Pharmacopoeia; assay type: physicochemical
[2] = Dissolution test of poorly-soluble substances using distilled water; assay type: physicochemical
[3] = 2nd fluid for disintegration test, elution time 3 min
[4] = 2nd fluid for disintegration test, elution time 10 min
[5] = 2nd fluid for disintegration test, elution time 30 min
[6] = 2nd fluid for disintegration test, elution time 120 min
[7] = 2nd fluid for disintegration test, elution time 360 min
[8] = after dissolution test for 360 minutes, Second disintegration test medium (pH 6.8), 37±0.5° C.
[9] = after dissolution test for 360 minutes, distilled water, 37±0.5° C.
[10] = 2nd fluid for disintegration test, elution time 1 min
[11] = 2nd fluid for disintegration test, elution time 60 min

Dissolved amount ([1]; Dipyridamole, 2nd fluid for disintegration test, elution time 3 min): 6.5 µg/mL
Dissolved amount ([1]; Dipyridamole, 2nd fluid for disintegration test, elution time 10 min): 6.5 µg/mL
Dissolved amount ([1]; Dipyridamole, 2nd fluid for disintegration test, elution time 30 min): 8.3 µg/mL
Dissolved amount ([1]; Dipyridamole, 2nd fluid for disintegration test, elution time 120 min): 8.5 µg/mL
Dissolved amount ([1]; Dipyridamole, 2nd fluid for disintegration test, elution time 360 min): 9.2 µg/mL
Dissolved amount ([2]; water, elution time 3 min): 7.8 µg/mL
Dissolved amount ([2]; water, elution time 10 min): 7.9 µg/mL
Dissolved amount ([2]; water, elution time 30 min): 8.0 µg/mL
Dissolved amount ([2]; water, elution time 120 min): 8.5 µg/mL
Dissolved amount ([2]; water, elution time 360 min): 8.2 µg/mL
Compound: OCCN(CCO)c1nc(N2CCCCC2)c2nc(N(CCO)CCO)nc(N3CCCCC3)c2n1 [compound 31, Dipyridamole]

Dissolved amount ([1]; Probenecid, 2nd fluid for disintegration test, elution time 3 min): 386.2 µg/mL
Dissolved amount ([1]; Probenecid, 2nd fluid for disintegration test, elution time 10 min): 1107.2 µg/mL
Dissolved amount ([1]; Probenecid, 2nd fluid for disintegration test, elution time 30 min): 1315.0 µg/mL
Dissolved amount ([1]; Probenecid, 2nd fluid for disintegration test, elution time 120 min): 2619.5 µg/mL
Dissolved amount ([1]; Probenecid, 2nd fluid for disintegration test, elution time 360 min): 3715.9 µg/mL
Dissolved amount ([2]; Probenecid, water, elution time 3 min): 10.7 µg/mL
Dissolved amount ([2]; Probenecid, water, elution time 10 min): 22.7 µg/mL
Dissolved amount ([2]; Probenecid, water, elution time 30 min): 33.4 µg/mL
Dissolved amount ([2]; Probenecid, water, elution time 120 min): 39.8 µg/mL
Dissolved amount ([2]; Probenecid, water, elution time 360 min): 37.5 µg/mL
Compound: CCCN(CCC)S(=O)(=O)c1ccc(C(=O)O)cc1 [compound 38, Probenecid]

Dissolved amount [1, 3]: 346.6 µg/mL
Dissolved amount [1, 4]: 352.2 µg/mL
Dissolved amount [1, 5]: 413.9 µg/mL
Dissolved amount [1, 6]: 282.1 µg/mL
Dissolved amount [1, 7]: 199.3 µg/mL
Dissolved amount ([2]; water, elution time 3 min): 291.2 µg/mL
Dissolved amount ([2]; water, elution time 10 min): 234.8 µg/mL
Dissolved amount ([2]; water, elution time 30 min): 214.3 µg/mL
Dissolved amount ([2]; water, elution time 120 min): 159.5 µg/mL
Dissolved amount ([2]; water, elution time 360 min): 153.0 µg/mL
Compound: NC(=O)N1c2ccccc2C=Cc2ccccc21 [compound 22, Carbamazepine]

Dissolved amount [1, 8]: 8.0 µg/mL
Dissolved amount [2, 9]: 6.4 µg/mL
Compound: COc1ccc(Cl)cc1C(=O)NCCc1ccc(S(=O)(=O)NC(=O)NC2CCCCC2)cc1 [compound 11, Glibenclamide]

Dissolved amount ([1]; Allopurinol, 2nd fluid for disintegration test, elution time 3 min): 565.4 µg/mL
Dissolved amount ([1]; Allopurinol, 2nd fluid for disintegration test, elution time 10 min): 672.6 µg/mL
Dissolved amount ([1]; Allopurinol, 2nd fluid for disintegration test, elution time 30 min): 725.7 µg/mL
Dissolved amount ([1]; Allopurinol, 2nd fluid for disintegration test, elution time 120 min): 722.8 µg/mL
Dissolved amount ([1]; Allopurinol, 2nd fluid for disintegration test, elution time 360 min): 696.1 µg/mL
Dissolved amount ([2]; Allopurinol, water, elution time 3 min): 578.2 µg/mL
Dissolved amount ([2]; Allopurinol, water, elution time 10 min): 679.4 µg/mL
Dissolved amount ([2]; Allopurinol, water, elution time 30 min): 773.9 µg/mL
Dissolved amount ([2]; Allopurinol, water, elution time 120 min): 741.5 µg/mL
Dissolved amount ([2]; Allopurinol, water, elution time 360 min): 712.5 µg/mL
Compound: Oc1ncnc2[nH]ncc12 [compound 39, Allopurinol]

Dissolved amount [1, 10]: 8133.8 µg/mL
Dissolved amount [1, 3]: 8635.7 µg/mL
Dissolved amount [1, 4]: 8596.0 µg/mL
Dissolved amount [1, 5]: 8929.7 µg/mL
Dissolved amount [1, 11]: 9096.5 µg/mL
Dissolved amount ([1]; 2nd fluid for disintegration test, elution time 180 min): 8906.5 µg/mL
Dissolved amount [1, 7]: 8906.2 µg/mL
Dissolved amount ([2]; water, elution time 1 min): 7082.2 µg/mL
Dissolved amount ([2]; water, elution time 3 min): 7897.9 µg/mL
Dissolved amount ([2]; water, elution time 10 min): 8554.7 µg/mL
Dissolved amount ([2]; water, elution time 30 min): 8621.6 µg/mL
Dissolved amount ([2]; water, elution time 60 min): 8652.4 µg/mL
Dissolved amount ([2]; water, elution time 180 min): 8672.3 µg/mL
Dissolved amount ([2]; water, elution time 360 min): 8691.5 µg/mL
Compound: Cn1c(=O)c2[nH]cnc2n(C)c1=O [Comparative Example 15, Theophylline]

Dissolved amount [1, 10]: 1980.2 µg/mL
Dissolved amount [1, 3]: 2286.6 µg/mL
Dissolved amount [1, 4]: 2541.7 µg/mL
Dissolved amount [1, 5]: 2600.9 µg/mL
Dissolved amount [1, 11]: 2667.9 µg/mL
Dissolved amount [1, 7]: 2410.4 µg/mL
Dissolved amount ([2]; water, elution time 1 min): 1162.9 µg/mL
Dissolved amount ([2]; water, elution time 3 min): 1416.8 µg/mL
Dissolved amount ([2]; water, elution time 10 min): 1502.6 µg/mL
Dissolved amount ([2]; water, elution time 30 min): 1566.8 µg/mL
Dissolved amount ([2]; water, elution time 60 min): 1565.8 µg/mL
Dissolved amount ([2]; water, elution time 180 min): 1509.8 µg/mL
Dissolved amount ([2]; water, elution time 360 min): 1497.4 µg/mL
Compound: NC(N)=Nc1nc(CSCCC(N)=NS(N)(=O)=O)cs1 [Comparative Example 17, Famotidine]

Dissolved amount ([1]; Gliclazide, 2nd fluid for disintegration test, elution time 3 min): 80.1 µg/mL
Dissolved amount ([1]; Gliclazide, 2nd fluid for disintegration test, elution time 30 min): 296.1 µg/mL
Dissolved amount ([1]; Gliclazide, 2nd fluid for disintegration test, elution time 120 min): 420.2 µg/mL
Dissolved amount ([1]; Gliclazide, 2nd fluid for disintegration test, elution time 360 min): 429.4 µg/mL
Dissolved amount ([2]; Gliclazide, water, elution time 3 min): 11.1 µg/mL
Dissolved amount ([2]; Gliclazide, water, elution time 10 min): 26.3 µg/mL
Dissolved amount ([2]; Gliclazide, water, elution time 30 min): 35.4 µg/mL
Dissolved amount ([2]; Gliclazide, water, elution time 120 min): 38.8 µg/mL
Dissolved amount ([2]; Gliclazide, water, elution time 360 min): 39.3 µg/mL
Compound: Cc1ccc(S(=O)(=O)NC(=O)NN2CC3CCCC3C2)cc1 (stereo not shown) [compound 32, Gliclazide]

Dissolved amount [1, 3]: 688.7 µg/mL
Dissolved amount [1, 4]: 767.1 µg/mL
Dissolved amount [1, 5]: 744.1 µg/mL
Dissolved amount [1, 6]: 721.6 µg/mL
Dissolved amount [1, 7]: 694.7 µg/mL
Dissolved amount ([2]; water, elution time 3 min): 455.9 µg/mL
Dissolved amount ([2]; water, elution time 10 min): 523.1 µg/mL
Dissolved amount ([2]; water, elution time 30 min): 492.3 µg/mL
Dissolved amount ([2]; water, elution time 120 min): 470.7 µg/mL
Dissolved amount ([2]; water, elution time 360 min): 395.5 µg/mL
Compound: CCn1cc(C(=O)O)c(=O)c2cc(F)c(N3CCNCC3)cc21 [compound 27, Norfloxacin]

The remaining lines, values behind:

Compound: CC[C@H]1OC(=O)[C@H](C)[C@@H](O[C@H]2C[C@@](C)(OC)[C@@H](O)[C@H](C)O2)[C@H](C)[C@@H](O[C@@H]2O[C@H](C)C[C@H](N(C)C)[C@H]2O)[C@](C)(O)C[C@@H](C)C(=O)[C@H](C)[C@@H](O)[C@]1(C)O [compound 28, Erythromycin]
Dissolved amount [1, 4]: 4984.2 µg/mL
Dissolved amount [1, 5]: 5103.6 µg/mL
Dissolved amount [1, 6]: 5904.1 µg/mL
Dissolved amount [1, 7]: 6044.7 µg/mL
Dissolved amount ([2]; water, elution time 3 min): 635.0 µg/mL
Dissolved amount ([2]; water, elution time 10 min): 861.6 µg/mL
Dissolved amount ([2]; water, elution time 30 min): 944.7 µg/mL
Dissolved amount ([2]; water, elution time 120 min): 927.7 µg/mL
Dissolved amount ([2]; water, elution time 360 min): 846.1 µg/mL

Compound: CCC1(c2ccccc2)C(=O)NCNC1=O [compound 14, Primidone]
Dissolved amount [1, 8]: 335.2 µg/mL
Dissolved amount [2, 9]: 180.3 µg/mL

Compound: CC(=O)SC[C@@H](C)C(=O)N1CCC[C@H]1C(=O)N[C@@H](Cc1ccccc1)C(=O)O [compound 24, Alacepril]
Dissolved amount [1, 3]: 2311.1 µg/mL
Dissolved amount [1, 5]: 2525.0 µg/mL
Dissolved amount ([2]; water, elution time 3 min): 526.2 µg/mL
Dissolved amount ([2]; water, elution time 10 min): 805.6 µg/mL
Dissolved amount ([2]; water, elution time 30 min): 931.2 µg/mL
Dissolved amount ([2]; water, elution time 120 min): 994.9 µg/mL
Dissolved amount ([2]; water, elution time 360 min): 996.5 µg/mL

Compound: O=C(CCCN1CCC(O)(c2ccc(Cl)cc2)CC1)c1ccc(F)cc1 [compound 46, Haloperidol]
Dissolved amount ([1]; Haloperidol, 2nd fluid for disintegration test, elution time 3 min): 23.9 µg/mL
Dissolved amount ([1]; Haloperidol, 2nd fluid for disintegration test, elution time 10 min): 35.6 µg/mL
Dissolved amount ([1]; Haloperidol, 2nd fluid for disintegration test, elution time 120 min): 50.1 µg/mL
Dissolved amount ([1]; Haloperidol, 2nd fluid for disintegration test, elution time 360 min): 48.9 µg/mL
Dissolved amount ([2]; Haloperidol, water, elution time 3 min): 8.2 µg/mL
Dissolved amount ([2]; Haloperidol, water, elution time 10 min): 10.0 µg/mL
Dissolved amount ([2]; Haloperidol, water, elution time 30 min): 11.3 µg/mL
Dissolved amount ([2]; Haloperidol, water, elution time 360 min): 13.1 µg/mL

Compound: CCCCCCC(=O)O[C@H]1CC[C@H]2[C@@H]3CCc4cc(O)ccc4[C@H]3CC[C@]12C [compound 44, Estradiol Enanthate]
Dissolved amount ([1]; Estradiol Enanthate, 2nd fluid for disintegration test, elution time 3 min): 7.9 µg/mL
Dissolved amount ([1]; Estradiol Enanthate, 2nd fluid for disintegration test, elution time 30 min): 7.0 µg/mL
Dissolved amount ([1]; Estradiol Enanthate, 2nd fluid for disintegration test, elution time 120 min): 19.0 µg/mL
Dissolved amount ([1]; Estradiol Enanthate, 2nd fluid for disintegration test, elution time 360 min): 10.9 µg/mL
Dissolved amount ([2]; Estradiol Enanthate, water, elution time 3 min): 1.6 µg/mL
Dissolved amount ([2]; Estradiol Enanthate, water, elution time 10 min): 1.4 µg/mL
Dissolved amount ([2]; Estradiol Enanthate, water, elution time 30 min): 1.8 µg/mL
Dissolved amount ([2]; Estradiol Enanthate, water, elution time 120 min): 1.6 µg/mL
Dissolved amount ([2]; Estradiol Enanthate, water, elution time 360 min): 1.3 µg/mL

Compound: Nc1ncnc2nc[nH]c12 [compound 45, Adenine]
Dissolved amount ([1]; Adenine, 2nd fluid for disintegration test, elution time 3 min): 1752.2 µg/mL
Dissolved amount ([1]; Adenine, 2nd fluid for disintegration test, elution time 10 min): 2028.0 µg/mL
Dissolved amount ([1]; Adenine, 2nd fluid for disintegration test, elution time 30 min): 2001.9 µg/mL
Dissolved amount ([1]; Adenine, 2nd fluid for disintegration test, elution time 120 min): 2001.4 µg/mL
Dissolved amount ([1]; Adenine, 2nd fluid for disintegration test, elution time 360 min): 1876.8 µg/mL
Dissolved amount ([2]; Adenine, water, elution time 3 min): 1478.0 µg/mL
Dissolved amount ([2]; Adenine, water, elution time 10 min): 1557.3 µg/mL
Dissolved amount ([2]; Adenine, water, elution time 30 min): 1646.6 µg/mL
Dissolved amount ([2]; Adenine, water, elution time 360 min): 1696.4 µg/mL

Compound: CNC[C@H](O)c1ccc(O)c(O)c1 [compound 29, Epinephrine]
Dissolved amount [1]: 2001.7 µg/mL and 2061.7 µg/mL and 2129.3 µg/mL and 2102.5 µg/mL
